Marks after values point to notes of the source that are not given here.
What was measured:
[1] = Measurement of LogP values by HPLC on reversed phase columns (EEC directive 79/831 Annex V.A8); format: physicochemical; conditions: for chromatographic logP: reversed phase HPLC column
Method: [table] If more than one Log P value is available within the same method, all the values are given and separated by “+”. Calibration was done with straight-chain alkan2-ones (with 3 to 16 carbon atoms) with known Log P values (measurement of Log P values using retention times with linear interpolation between successive alkanones). Lambda-max-values were determined using UV-spectra from 200 nm to 400 nm and the peak values of the chromatographic signals.

Puccinia recondita = experiment: Example B: in vivo preventive test on Puccinia recondita (brown rust on wheat); conditions: 264 h, 500 ppm of active ingredient, wheat plants, preventive spray, evaluated 11 days after inoculation, read-out: efficacy
Method: (§1) Example B: In Vivo Preventive Test on Puccinia recondita (Brown Rust on Wheat) [table] The active ingredients are made soluble and homogenized in a mixture of Dimethyl sulfoxide/Acetone//Tween® 80 and then diluted in water to the desired concentration. The young plants of wheat are treated by spraying the active ingredient prepared as described above. Control plants are treated only with an aqueous solution of Acetone/Dimethyl sulfoxide/Tween® 80. After 24 hours, the plants are contaminated by spraying the leaves with an aqueous suspension of Puccinia recondita spores. The contaminated wheat plants are incubated for 24 hours at 20° C. and at 100% relative humidity and then for 10 days at 20° C. and at 70-80% relative humidity. The test is evaluated 11 days after the inoculation. 0% means an efficacy which corresponds to that of the control plants while an efficacy of 100% means that no disease is observed.

Sphaerotheca fuliginea [2] = experiment: Example D: in vivo preventive test on Sphaerotheca fuliginea (powdery mildew on cucurbits); conditions: Podosphaera fuliginea, 360 h; 500 ppm of active ingredient; gherkin plants, preventive spray; evaluated 15 days after inoculation; read-out: efficacy
Method: Example D: In Vivo Preventive Test on Sphaerotheca fuliginea (Powdery Mildew on Cucurbits) [table] The active ingredients are made soluble and homogenized in a mixture of Dimethyl sulfoxide/Acetone//Tween® 80 and then diluted in water to the desired concentration. The young plants of gherkin are treated by spraying the active ingredient prepared as described above. Control plants are treated only with an aqueous solution of Acetone/Dimethyl sulfoxide/Tween® 80. After 24 hours, the plants are contaminated by spraying the leaves with an aqueous suspension of Sphaerotheca fuliginea spores. The contaminated gherkin plants are incubated for 72 hours at 18° C. and at 100% relative humidity and then for 12 days at 20° C. and at 70-80% relative humidity. The test is evaluated 15 days after the inoculation. 0% means an efficacy which corresponds to that of the control plants while an efficacy of 100% means that no disease is observed.

Uromyces appendiculatus = experiment: Example E: in vivo preventive test on Uromyces appendiculatus (bean rust); conditions: 264 h, 500 ppm of active ingredient, bean plants, preventive spray, evaluated 11 days after inoculation, read-out: efficacy
Method: as §1, with “E:” for “B:”, “Uromyces appendiculatus (Bean Rust)” for “Puccinia recondita (Brown Rust on Wheat)”, “bean” for “wheat”, “Uromyces appendiculatus” for “Puccinia recondita”

Sphaerotheca fuliginea [3] = experiment: Example M: in vivo preventive test on Sphaerotheca (cucumbers); comparison of phenoxy-pyridyl compounds vs. known phenoxy-phenyl compounds; conditions: Podosphaera fuliginea, 168 h, rate of application 10 ppm, evaluated 7 days after inoculation, read-out: Efficacy in %
Method: Example M: In Vivo Preventive Test on Sphaerotheca (Cucumbers); Comparison of Phenoxy-pyridyl Compounds According to the Invention Vs. Known Phenoxy-phenyl Compounds [table] To produce a suitable preparation of active compound, 1 part by weight of active compound is mixed with the above stated amounts of solvent and emulsifier, and the concentrate is diluted with water to the desired concentration. To test for preventive activity, young plants are sprayed with the preparation of active compound at the stated rate of application. After the spray coating has dried on, the plants are inoculated with an aqueous spore suspension of Sphaerotheca fuliginea. The plants are then placed in a greenhouse at approximately 23° C. and a relative atmospheric humidity of approximately 70%. The test is evaluated 7 days after the inoculation. 0% means an efficacy which corresponds to that of the untreated control, while an efficacy of 100% means that no disease is observed. [table]

| SMILES | LogP [1] | other results |
| --- | --- | --- |
| O=C(Cn1cncn1)c1cnc(Oc2ccc(Cl)cc2)cc1C(F)(F)F [VII.02, 1-[6-(4-chlorophenoxy)-4-(trifluoromethyl)-3-pyridyl]-2-(1,2,4-triazol-1-yl)ethanone] | – | chromatographic logP ([1]; method [a], compounds of formula (VII), Table 4): 2.92; pest or weed control at 500 ppm (Puccinia recondita): 90 to 100%; pest or weed control at 500 ppm (Sphaerotheca fuliginea [2]): 90 to 100%; pest or weed control at 500 ppm (Uromyces appendiculatus): 80 to 89% |
| OC(Cn1cncn1)c1cnc(Oc2ccc(Cl)cc2)cc1C(F)(F)F (stereo not drawn) [I.04, 1-[6-(4-chlorophenoxy)-4-(trifluoromethyl)-3-pyridyl]-2-(1,2,4-triazol-1-yl)ethanol] | – | chromatographic logP ([1]; method [a]: LC-UV, acidic range, 0.1% formic acid in water and acetonitrile as eluent): 2.68; pest or weed control at 500 ppm (Puccinia recondita): 90 to 100%; pest or weed control at 500 ppm (Sphaerotheca fuliginea [2]): 90 to 100%; pest or weed control at 500 ppm (Uromyces appendiculatus): 90 to 100% |
| CC(O)(Cn1cncn1)c1ccc(Oc2ccc(Cl)cc2)cc1C(F)(F)F (stereo not drawn) [reference compound] | – | pest or weed control at 10 ppm (Sphaerotheca fuliginea [3]): 30% |
| OC(Cn1cncn1)c1ccc(Oc2ccc(C(F)F)cc2)nc1Cl (stereo not drawn) [I.38] | 2.17^[a] | – |
| OC(Cn1cncn1)(c1ccc(Oc2ccc(Br)cc2)nc1C(F)(F)F)C1CC1 (racemic) [I.81] | 3.70^[a] | – |
| CC(O)(Cn1cncn1)c1ccc(Oc2ccc(C(F)(F)F)cc2)nc1C(F)(F)F (stereo not drawn) [I.65] | 3.04^[a] | – |
| OC(Cn1cncn1)c1cnc(Oc2ccc(Cl)cc2F)cc1C(F)(F)F (stereo not drawn) [I.57] | 2.86^[a] | – |
| OC(Cn1cncn1)(c1ccc(Oc2ccc(C(F)(F)F)cc2)nc1C(F)(F)F)C1CC1 (stereo not drawn) [I.87] | 3.57^[a] | – |
| OC(Cn1cncn1)(c1ccc(Oc2ccc(Cl)cc2)nc1C(F)(F)F)C1CC1 (stereo not drawn) [I.80] | 3.32^[a] | – |
| OC(Cn1cncn1)c1ccc(Oc2ccc(Cl)cc2Cl)nc1Cl (racemic) [I.23] | 2.75^[a] | – |
| OC(Cn1cncn1)c1ccc(Oc2ccc(OC(F)(F)F)cc2)nc1Cl (racemic) [I.12] | 2.73^[a] | – |
| CC(O)(Cn1cncn1)c1cnc(Oc2ccc(Br)cc2)cc1C(F)F (stereo not drawn) [I.82] | 2.78^[a] | – |
| CC(=O)c1ccc(Oc2ccc(Cl)cc2)nc1C(F)F [V.05] | 3.35^[a] | – |
| CC(O)(Cn1cncn1)c1ccc(Oc2ccc(Cl)cc2F)nc1C(F)(F)F (stereo not drawn) [I.66] | 2.80^[a] | – |
| OC(Cn1cncn1)(c1ccc(Oc2ccc(C(F)F)cc2)nc1C(F)(F)F)C1CC1 (stereo not drawn) [I.93] | 3.13^[a] | – |
| CC(=O)c1ccc(Oc2ccc(Cl)cc2)nc1OC(F)(F)F [V.06] | 4.37^[a] | – |
| OC(Cn1cncn1)(c1ccc(Oc2ccc(Br)cc2)nc1C(F)(F)F)C1CC1 (single isomer, unassigned) [Example 1.84] | 3.41^[a] | – |
| OC(Cn1cncn1)c1cnc(Oc2ccc(S(F)(F)(F)(F)F)cc2)cc1C(F)(F)F (single isomer, unassigned) [I.86] | 3.11^[a] | – |
| OC(Cn1cncn1)c1cnc(Oc2ccc(C(F)F)cc2)cc1C(F)(F)F (stereo not drawn) [I.55] | 2.55^[a] | – |
| CC(O)(Cn1cncn1)c1ccc(Oc2ccc(Cl)cc2)nc1C(F)(F)F (stereo not drawn) [I.96] | 2.68^[a] | – |

Second part, led by results:

| LogP [1] | SMILES | other results |
| --- | --- | --- |
| 2.28^[a] | O=C(Cn1cncn1)c1ccc(Oc2ccccc2F)nc1Cl [VII.14] | – |
| 3.39^[a] | O=C(CCl)c1ccc(Oc2ccc(F)cc2)nc1Cl [VI.09] | – |
| 4.59^[a] | CCCC(=O)c1ccc(Oc2ccc(Cl)cc2)nc1C(F)(F)F [V.46] | – |
| 2.60^[a] | O=C(Cn1cncn1)c1cnc(Oc2ccc(Cl)cc2)cc1Cl [VII.38] | – |
| 2.99^[a] | O=C(Cn1cncn1)c1ccc(Oc2ccc(Br)cc2)nc1C(F)(F)F [VII.24] | – |
| 3.02^[a] | Cc1ccc(Oc2ccc(C(=O)Cn3cncn3)c(Cl)n2)cc1Cl [VII.11] | – |
| 3.27^[a] | O=C(Cn1cncn1)c1cnc(Oc2ccc(OC(F)(F)F)cc2)cc1C(F)(F)F [VII.26] | – |
| 3.57^[a] | O=C(CBr)c1ccc(Oc2ccc(C(F)F)cc2)nc1Cl [VI.17] | – |
| 3.23^[a] | O=C(Cn1cncn1)c1ccc(Oc2ccc(S(F)(F)(F)(F)F)cc2)nc1C(F)(F)F [VII.31] | – |
| 3.87^[a] | CC(=O)c1ccc(Oc2ccc(Cl)cc2F)nc1C(F)(F)F [V.38] | – |
| 4.58^[a] | O=C(CBr)c1ccc(Oc2ccc(Cl)c(Cl)c2)nc1Cl [VI.07] | – |
| 2.66^[a] | O=C(Cn1cncn1)c1ccc(Oc2cc(F)c(F)c(F)c2)nc1Cl [VII.15] | – |
| 3.62^[a] | O=C(CCl)c1ccc(Oc2ccc(Cl)cc2)nc1C(F)F [VI.11] | – |
| 2.58^[a] | COc1ccc(Oc2ccc(C(=O)Cn3cncn3)c(Cl)n2)c(Cl)c1 [VII.19] | – |
| 3.45^[a] | CC(=O)c1ccc(Oc2ccc(Cl)cc2)nc1Cl [V.26] | – |
| 4.20^[a] | CCC(=O)c1ccc(Oc2ccc(Cl)cc2)nc1C(F)(F)F [V.45] | – |
| 4.37^[a] | O=C(CCl)c1cnc(Oc2ccc(OC(F)(F)F)cc2)cc1C(F)(F)F [VI.21] | – |
| 4.09^[a] | CC(=O)c1cnc(Oc2ccc(Cl)cc2F)cc1C(F)(F)F [V.07] | – |
| 3.28^[a] | O=C(CCl)c1cnc(Oc2ccccc2)cc1Cl [VI.05] | – |
| 3.74^[a] | CC(=O)c1cnc(Oc2ccc(Br)cc2)cc1C(F)F [V.36] | – |
| 3.11^[a] | CC(=O)c1ccc(Oc2ccc(F)cc2)nc1Cl [V.12] | – |
| 4.19^[a] | O=C(CCl)c1ccc(Oc2ccc(C(F)(F)F)cc2)nc1C(F)(F)F [VI.28] | – |

Source: patent US10485236B2, “Triazole derivatives, intermediates thereof and their use as fungicides” (Bayer CropScience Aktiengesellschaft, priority 2015, dated 2019)
